Experimental data reported in US11384060B2, “Amide compounds and use thereof” (ALPHALA CO., LTD., priority 2017, dated 2022).
Read-outs that look alike come from different tables or passages of the source.

Key:
glucagon receptor (GCGR) = biological target: T1, glucagon receptor (GCGR) (Homo sapiens, UniProt P47871); assay: I125-glucagon binding assay (competition, GCGR membrane fractions)
T1 construct: expressed in transfected cells; host or cells: CHO-K1 cells overexpressing GCGR (membrane fractions)
T1 sequence (P47871 26-477): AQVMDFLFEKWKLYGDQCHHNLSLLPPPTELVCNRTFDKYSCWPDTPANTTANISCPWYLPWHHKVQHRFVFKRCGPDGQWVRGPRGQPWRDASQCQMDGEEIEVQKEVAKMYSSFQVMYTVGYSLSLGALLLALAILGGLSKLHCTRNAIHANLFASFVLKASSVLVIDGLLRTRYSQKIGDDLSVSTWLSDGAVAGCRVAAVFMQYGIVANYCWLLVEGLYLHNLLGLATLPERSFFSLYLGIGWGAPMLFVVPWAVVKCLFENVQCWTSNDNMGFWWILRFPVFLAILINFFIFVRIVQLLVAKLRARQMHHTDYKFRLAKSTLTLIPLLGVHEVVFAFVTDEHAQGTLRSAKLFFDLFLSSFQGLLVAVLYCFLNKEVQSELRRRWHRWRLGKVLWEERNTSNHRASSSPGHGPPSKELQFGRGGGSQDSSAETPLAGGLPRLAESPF
Method in brief: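 Competition of 0.0625 nM (final) I^125-glucagon for 30 min at 25° C, after 5 min compound preincubation, using 7.5 μg/well GCGR-overexpressing CHO-K1 membranes in 50 mM Tris pH 7.4, 0.5% BSA. Filtration onto PEI-coated GF/B, micro-beta counting, and non-linear regression gave IC50.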

[1] = biological target: T2, glucagon receptor (GCGR) overexpressed CHO-K1 cells or human primary hepatocytes (Homo sapiens, UniProt P47871); assay: Glucagon cAMP inhibition assay (Cisbio cAMP Dynamic 2 HTRF); format: cell-based
T2 construct: expressed in transfected cells; host or cells: GCGR overexpressed CHO-K1 cells or human primary hepatocytes (endogenous receptor)
T2 sequence (P47871 26-477): as above
Method in brief: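 HTRF read-out of glucagon-induced cAMP, with IC50 from non-linear regression. Cells (GCGR CHO-K1 or human primary hepatocytes) in HBSS/0.1% BSA/800 nM IBMX took compound dilutions for 30 min (final DMSO 1%), then EC50-level glucagon for 30 min at room temperature, then a 60 min lysis/detection step.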

[2] = competition with I125-glucagon 0.0625 nM, membrane fractions of GCGR overexpressed CHO-K1 cells
[3] = inhibition of glucagon (EC50 concentration) induced cAMP production

Row | SMILES | IC50 (glucagon receptor (GCGR); [2]) [µM] | IC50 cAMP [1, 3] [µM] | IC50 (glucagon receptor (GCGR)) [µM] | IC50 cAMP [1] [µM] | also measured
1 | CC(C)[C@@H](COc1ccc(-c2cc3ccccc3o2)cc1)Nc1ccc(C(=O)NCCC(=O)O)cn1 [Compound 4-2, (S)-3-(6-((1-(4-(benzofuran-2-yl)phenoxy)-3-methylbutan-2-yl)amino)nicotinamido)propanoic Acid] | 0.09 | 0.1213 | – | – | –
2 | CC(C)[C@H](COc1ccc(-c2nc3ccccc3s2)cc1)Nc1ccc(C(=O)NCCC(=O)O)cc1 [Compound 1-52, (R)-3-(4-((1-(4-(benzo[d]thiazol-2-yl)phenoxy)-3-methylbutan-2-yl)amino)benzamido)propanoic Acid] | 0.089 | 0.377 | – | – | –
3 | CC[C@H](C)[C@@H](COc1ccc(-c2ccc(Cl)cc2Cl)cc1)Nc1ccc(C(=O)NC[C@@H](O)C(=O)O)cc1 [Compound 1-14, (R)-3-(4-(((2S,3S)-1-((2′,4′-dichloro-[1,1′-biphenyl]-4-yl)oxy)-3-methylpentan-2-yl)amino)benzamido)-2-hydroxypropanoic Acid] | 0.112 | 3.553 | – | – | –
4 | CCCC[C@@H](COc1ccc(-c2ccc(Cl)cc2Cl)c(OC)c1)Nc1ccc(C(=O)NCCC(=O)O)cc1 [Compound 13-9, (S)-3-(4-((1-((2′,4′-dichloro-2-methoxy-[1,1′-biphenyl]-4-yl)oxy)hexan-2-yl)amino)benzamido)propanoic Acid] | 0.054 | 0.219 | – | – | –
5 | CC[C@H](C)[C@@H](COc1ccc(-c2ccc(C(F)(F)F)cc2F)nn1)Nc1ccc(C(=O)NCCC(=O)O)cc1 [Compound 17-5, 3-(4-(((2S,3S)-1-((6-(2-fluoro-4-(trifluoromethyl)phenyl)pyridazin-3-yl)oxy)-3-methylpentan-2-yl)amino)benzamido)propanoic Acid] | 0.769 | 3.332 | – | – | –
6 | CCOC(=O)CCNC(=O)c1ccc(N[C@H](C(=O)Nc2ccc(-c3cc4ccccc4o3)cc2)[C@@H](C)CC)cc1 [Compound 23-30] | – | – | 1.48 | 0.0252 | –
7 | CC(C)[C@@H](COc1ccc(-c2nnc(C(F)(F)F)o2)cc1)Nc1ccc(C(=O)NCCC(=O)O)cc1 [Compound 1-43, 3-(4-((3-methyl-1-(4-(5-(trifluoromethyl)-1,3,4-oxadiazol-2-yl)phenoxy)butan-2-yl)amino)benzamido)propanoic Acid] | 0.583 | >30 | – | – | –
8 | COc1cc(OC[C@@H](Nc2ccc(C(=O)NCCC(=O)O)cc2)C(C)C)ccc1-c1ccc(C(F)(F)F)cc1 [Compound 13-10, (S)-3-(4-((1-((2-methoxy-4′-(trifluoromethyl)-[1,1′-biphenyl]-4-yl)oxy)-3-methylbutan-2-yl)amino)benzamido)propanoic Acid] | 0.092 | 0.246 | – | – | –
9 | CC(C)[C@@H](COc1ccc(-c2ccc(C(F)(F)F)cc2)cn1)Nc1ccc(C(=O)NC[C@@H](O)C(=O)O)cc1 [Compound 15-8, (R)-2-hydroxy-3-(4-(((S)-3-methyl-1-((5-(4-(trifluoromethyl)phenyl)pyridin-2-yl)oxy)butan-2-yl)amino)benzamido)propanoic Acid] | – | – | 3.3 | >30 | –
10 | CCOC(=O)CCNC(=O)c1ccc(N[C@H](COc2ccc(-c3cc4ccccc4o3)cc2)C(C)C)cc1 [Compound 1-1, Ethyl(S)-3-(4-((1-(4-(benzofuran-2-yl)phenoxy)-3-methylbutan-2-yl)amino)benzamido) propanoate] | 0.803 | 1.177 | – | – | –
11 | CC(C)[C@@H](COc1ccc(-c2ccc(C(F)(F)F)cc2)cc1)Nc1ccc(C(=O)NCCC(=O)O)nc1 [Compound 9-3, (S)-3-(5-((3-methyl-1-((4′-(trifluoromethyl)-[1,1′-biphenyl]-4-yl)oxy)butan-2-yl)amino)picolinamido)propanoic Acid] | 0.12 | 0.487 | – | – | –
12 | CCOC(=O)CCNC(=O)c1ccc(N[C@H](COc2ccc(-c3nnc(C(C)(C)C)o3)cn2)c2ccc(-c3ccc(C(F)(F)F)cc3F)cc2)cc1 [Compound 15-31, Ethyl (S)-3-(4-((2-((5-(5-(tert-butyl)-1,3,4-oxadiazol-2-yl)pyridin-2-yl)oxy)-1-(2′-fluoro-4′-(trifluoromethyl)-[1,1′-biphenyl]-4-yl)ethyl)amino)benzamido)propanoate] | – | – | > 30 | >30 | –
13 | CC(C)[C@@H](COc1ccc(-c2cc3ccccc3o2)cn1)Nc1ccc(C(=O)NCCC(=O)O)cc1 [Compound 15-3, (S)-3-(4-((1-((5-(benzofuran-2-yl)pyridin-2-yl)oxy)-3-methylbutan-2-yl)amino)benzamido)propanoic Acid] | – | – | 0.051 | 0.111 | –
14 | CCCC[C@@H](COc1ccc(-c2ccc(C(F)(F)F)cc2Cl)c(Cl)c1)Nc1ccc(C(=O)NCc2nnn[nH]2)cc1 [Compound 3-9, (S)—N-((1H-tetrazol-5-yl)methyl)-4-((1-((2,2′-dichloro-4′-(trifluoromethyl)-[1,1′-biphenyl]-4-yl)oxy)hexan-2-yl)amino)benzamide] | 0.037 | 0.5281 | – | – | –
15 | CCCC[C@H](Cc1ccc(-c2ccc(C(C)(C)C)cc2)cc1)Nc1ccc(C(=O)NCCC(=O)O)cc1 [Compound 19-7, (R)-3-(4-((1-(4′-(tert-butyl)-[1,1′-biphenyl]-4-yl)hexan-2-yl)amino)benzamido)propanoic Acid] | – | – | 0.299 | 0.731 | –
16 | CC(C)[C@@H](COc1ccc(-c2ccc(Cl)cc2Cl)c(F)c1)Nc1ccc(C(=O)NCCC(=O)O)cc1 [Compound 8-9, (S)-3-(4-((1-((2′,4′-dichloro-2-fluoro-[1,1′-biphenyl]-4-yl)oxy)-3-methylbutan-2-yl)amino)benzamido)propanoic Acid] | 0.145 | 0.365 | – | – | –
17 | CCOC(=O)CCNC(=O)c1ccc(N[C@@H](Cc2cccc3ccccc23)C(=O)Nc2ccc(-c3cc4ccccc4o3)cc2)cc1 [Compound 23-13, Ethyl (S)-3-(4-((1-((4-(benzofuran-2-yl)phenyl)amino)-3-(naphthalen-1-yl)-1-oxopropan-2-yl)amino)benzamido)propanoate] | – | – | – | – | IC50 (glucagon receptor (GCGR); uM): > 10 µM; IC50 cAMP ([1]; uM): >10 µM
18 | CC(C)[C@@H](COc1ccc(-c2cc(Cl)cc(Cl)c2)c(F)c1)Nc1ccc(C(=O)NCCC(=O)O)cc1 [Compound 8-12, (S)-3-(4-((1-((3′,5′-dichloro-2-fluoro-[1,1′-biphenyl]-4-yl)oxy)-3-methylbutan-2-yl)amino)benzamido)propanoic Acid] | 0.227 | 1.243 | – | – | –
19 | CC(C)[C@@H](COc1ccc(-c2cc3ccccc3o2)nn1)Nc1ccc(C(=O)NCCC(=O)O)cc1 [Compound 17-8, (S)-3-(4-((1-((6-(benzofuran-2-yl)pyridazin-3-yl)oxy)-3-methylbutan-2-yl)amino)benzamido)propanoic Acid] | 2.04 | 10.741 | – | – | –
20 | CCOC(=O)CCNC(=O)c1ccc(N[C@H](COc2ccc(-c3nc4ccccc4s3)cn2)C(C)C)cc1 [Compound 15-36, Ethyl (S)-3-(4-((1-((5-(benzo[d]thiazol-2-yl)pyridin-2-yl)oxy)-3-methylbutan-2-yl)amino)benzamido)propanoate] | – | – | – | 1.973 | IC50 (glucagon receptor (GCGR); uM): > 30 µM
21 | CCCC[C@@H](COc1ccc(-c2cc3ccccc3o2)c(F)c1)Nc1ccc(C(=O)NCCC(=O)O)cc1 [Compound 8-13, (S)-3-(4-((1-(4-(benzofuran-2-yl)-3-fluorophenoxy)hexan-2-yl)amino)benzamido) propanoic Acid] | 0.044 | 0.084 | – | – | –
22 | CCCC[C@@H](COc1cc(C)c(-c2cc3ccccc3o2)c(C)c1)Nc1ccc(C(=O)NCCC(=O)O)cc1 [Compound 2-12, (S)-3-(4-((1-(4-(benzofuran-2-yl)-3,5-dimethylphenoxy)hexan-2-yl)amino)benzamido)propanoic Acid] | 0.108 | 0.0628 | – | – | –
23 | CC[C@H](C)[C@@H](COc1nnc(-c2ccc(C(F)(F)F)cc2)o1)Nc1ccc(C(=O)NCCC(=O)O)cc1 [Compound 22-10, 3-(4-(((2S,3S)-3-methyl-1-((5-(4-(trifluoromethyl)phenyl)-1,3,4-oxadiazol-2-yl)oxy)pentan-2-yl)amino)benzamido)propanoic Acid] | – | – | > 30 | >30 | –
24 | CCCOC[C@H](Cc1ccc(-c2cc3ccccc3o2)cc1)Nc1ccc(C(=O)NCCC(=O)O)cc1 [Compound 19-26, (S)-3-(4-((1-(4-(benzofuran-2-yl)phenyl)-3-propoxypropan-2-yl)amino)benzamido)propanoic Acid] | – | – | 0.592 | 0.9028 | –
25 | O=C(NCc1nn[nH]n1)c1ccc(N[C@H](COc2ccc(-c3cc4ccccc4o3)cn2)c2ccccc2)cc1 [Compound 15-1, (S)—N-((2H-tetrazol-5-yl)methyl)-4-((2-((5-(benzofuran-2-yl)pyridin-2-yl)oxy)-1-phenylethyl)amino)benzamide] | – | – | 0.388 | 7.356 | –
26 | C[C@@H](Cc1ccc(-c2ccc(C(C)(C)C)cc2)cc1)Nc1ccc(C(=O)NCCC(=O)O)cc1 [Compound 19-4, (S)-3-(4-((1-(4′-(tert-butyl)-[1,1′-biphenyl]-4-yl)propan-2-yl)amino)benzamido)propanoic Acid] | – | – | 1.63 | 3.488 | –
27 | CC(C)[C@H](Nc1ccc(C(=O)NCCC(=O)O)cc1)c1nnc(-c2ccc(C(C)(C)C)cc2)o1 [Compound 20-4, (S)-3-(4-((1-(5-(4-(tert-butyl)phenyl)-1,3,4-oxadiazol-2-yl)-2-methylpropyl)amino)benzamido)propanoic Acid] | – | – | 1.04 | 4.853 | –
